# Laboratory results published in ChEMBL document CHEMBL1156211, “Amide-based inhibitors of p38alpha MAP kinase. Part 1: discovery of novel N-pyridyl amide lead molecules” (Bioorg Med Chem Lett, 2010).
# Columns and labels:
# [1] = biological target: T1, Mitogen-activated protein kinase 14 (Homo sapiens, UniProt Q16539); assay: Inhibition of p38alpha assessed as inhibition of gamma-32p-ATP incorporation into biotin peptide substrate after 60 mins by scintillation counter
# [2] = biological target: T1, Mitogen-activated protein kinase 14; assay: Inhibition of p38alpha assessed as inhibition of gamma-32p-ATP incorporation into biotin peptide substrate at 1 uM after 60 mins by scintillation counter
# T1 sequence (Q16539 whole entry): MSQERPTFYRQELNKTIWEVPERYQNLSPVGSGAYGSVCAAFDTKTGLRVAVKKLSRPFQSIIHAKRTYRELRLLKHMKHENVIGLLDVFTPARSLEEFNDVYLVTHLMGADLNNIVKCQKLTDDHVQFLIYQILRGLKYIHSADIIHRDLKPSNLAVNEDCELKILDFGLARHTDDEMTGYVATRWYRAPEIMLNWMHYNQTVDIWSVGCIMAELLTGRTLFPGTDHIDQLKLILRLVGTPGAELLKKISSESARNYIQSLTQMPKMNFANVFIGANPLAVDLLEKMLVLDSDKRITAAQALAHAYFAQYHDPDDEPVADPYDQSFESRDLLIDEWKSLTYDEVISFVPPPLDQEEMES
IC50 [1] [nM],inhibition [2] [%],Compound
345,,C[C@H](Nc1cc(N(Cc2ccc(F)cc2)C(=O)c2ccc3ccccc3c2)ccn1)c1ccccc1
,0,C[C@H](Nc1cc(CN(C(=O)c2ccc3ccccc3c2)c2ccc(F)cc2)ccn1)c1ccccc1
408,,CC(=O)N(Cc1ccc(F)cc1)c1ccnc(N[C@@H](C)c2ccccc2)c1
1110,,O=C(c1ccc2ccccc2c1)N(Cc1ccc(F)cc1)c1ccnc(NC2CCCCC2)c1
589,,C[C@H](Nc1cc(N(Cc2ccc(F)cc2)C(=O)c2ccccc2)ccn1)c1ccccc1
5080,,Nc1cc(N(Cc2ccc(F)cc2)C(=O)c2ccc3ccccc3c2)ccn1
7540,,C[C@H](Nc1cc(N(Cc2ccc(F)cc2)S(=O)(=O)c2ccc3ccccc3c2)ccn1)c1ccccc1
1260,,O=C(c1ccc2ccccc2c1)N(Cc1ccc(F)cc1)c1ccncc1
313,,CCN(C(=O)c1ccc2ccccc2c1)c1ccnc(N[C@@H](C)c2ccccc2)c1
,0,C[C@H](Nc1cc(NCc2ccc(F)cc2)ccn1)c1ccccc1
,0,O=C(c1ccc2ccccc2c1)N(Cc1ccncc1)c1ccc(F)cc1
671,,CC(C)Nc1cc(N(Cc2ccc(F)cc2)C(=O)c2ccc3ccccc3c2)ccn1
1220,,O=C(c1ccc2ccccc2c1)N(Cc1ccc(F)cc1)c1ccnc(NCc2ccccc2)c1
1110,,C[C@H](Nc1cc(N(Cc2ccc(F)cc2)C(=O)N2CCC3C=CC=CC3C2)ccn1)c1ccccc1 (stereo not given in full)
7800,,C[C@@H](Nc1cc(N(Cc2ccc(F)cc2)C(=O)c2ccc3ccccc3c2)ccn1)c1ccccc1
